Laboratory results taken from paper PMC11944621, “Synthesis, Molecular Simulation, DFT, and Kinetic Study of Imidazotriazole-Based Thiazolidinone as Dual Inhibitor of Acetylcholinesterase and Butyrylcholinesterase Enzymes” (Pharmaceuticals, 2025).
Where two headings read alike, the source gives them in different places.

How the values were obtained:
BChE [1] = biological target: T1, BChE (Homo sapiens, UniProt P06276); settings: cited from earlier work
AChE [2] = biological target: T2, AChE (Homo sapiens, UniProt P22303); settings: previously reported thiazolidinone analog; read-out: IC50 against AChE; cited from earlier work
T2 sequence (P22303 32-614): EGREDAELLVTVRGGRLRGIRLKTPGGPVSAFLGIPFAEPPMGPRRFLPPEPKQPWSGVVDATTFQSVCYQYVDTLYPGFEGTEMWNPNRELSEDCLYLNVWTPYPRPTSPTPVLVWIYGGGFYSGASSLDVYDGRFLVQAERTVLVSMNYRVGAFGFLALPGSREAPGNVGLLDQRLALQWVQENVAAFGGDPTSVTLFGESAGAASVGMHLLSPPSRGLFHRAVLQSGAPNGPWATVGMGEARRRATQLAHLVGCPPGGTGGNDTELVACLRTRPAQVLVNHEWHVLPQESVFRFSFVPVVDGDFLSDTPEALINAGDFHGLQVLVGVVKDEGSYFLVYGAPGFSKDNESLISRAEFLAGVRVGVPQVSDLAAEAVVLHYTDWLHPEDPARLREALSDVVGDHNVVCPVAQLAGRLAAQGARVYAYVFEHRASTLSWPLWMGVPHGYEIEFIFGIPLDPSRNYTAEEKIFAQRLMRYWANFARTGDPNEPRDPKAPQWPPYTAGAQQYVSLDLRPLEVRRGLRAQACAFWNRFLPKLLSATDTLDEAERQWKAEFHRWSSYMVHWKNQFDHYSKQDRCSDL

AChE [3] = biological target: T2, AChE; assay: biochemical; settings: in vitro, triplicate; read-out: AchE IC50 ± SEM
Protocol: (§1) With some modifications, inhibitory potential against AChE and BuChE was investigated according to the reported protocol. […] Added test compound (well-1) with volume of 10 µL and a concentration of 0.5 mM followed by the addition of an enzyme of 10 µL (0.005 unit well-1). Pre-incubation of substances at 37 °C for 10 min was achieved. Reaction was started by adding 10 µL of 0.5 mM well-1 substrate (acetylthiocholine iodide/ butyrylthiochloine chloride) followed by addition of 10 µL DTNB (0.5 mM well-1). […] All experiments were performed with their respective controls in triplicate. […] The % inhibition was computed using the following equation:Inhibition (%) = Control − Test/control × 100 […]
(§2) S.2 AChE and BuChE assay protocols
(§3) With a little bit modification, inhibitory potential against AChE and BuChE was investigated according to the reported protocol. The total volume of the reaction mixture was kept at 100 µL, […]
(§4) compound (well-1) with volume of 10µL and a concentration of 0.5mM followed by the addition of an enzyme of 10 µL (0.005 unit well-1). Pre-incubation of substances at 37 °C for 10 min was achieved. Reaction was started by addition of 10µL of 0.5mM well-1 substrate (acetylthiocholine iodide/ butyrylthiochloine chloride) followed by addition of 10µL DTNB (0.5mM well-1).
(§5) Synergy HT, BioTek, US. All experiments were done with their respective controls in triplicate.
(§6) The % inhibition was computed using the following equation
(§7) Inhibition (%) = Control – Test/control x 100
(§8) Control EZ-Fit Enzyme kinetics software (Perrella Scientific Inc. Amherst, USA) was used for the calculation of IC50 values. […]

BChE [4] = biological target: T1, BChE; assay: biochemical; settings: in vitro, triplicate; read-out: BChE IC50 ± SEM
Protocol: as §1, §2, §3, §4, §5, §6, §7, §8

enzyme = assay: Enzyme kinetics (mode of inhibition); type: biochemical
Text: This is an in vitro approach, which measures the initial inhibition rate with the change in the inhibitor concentration.

T1 sequence (P06276 29-602): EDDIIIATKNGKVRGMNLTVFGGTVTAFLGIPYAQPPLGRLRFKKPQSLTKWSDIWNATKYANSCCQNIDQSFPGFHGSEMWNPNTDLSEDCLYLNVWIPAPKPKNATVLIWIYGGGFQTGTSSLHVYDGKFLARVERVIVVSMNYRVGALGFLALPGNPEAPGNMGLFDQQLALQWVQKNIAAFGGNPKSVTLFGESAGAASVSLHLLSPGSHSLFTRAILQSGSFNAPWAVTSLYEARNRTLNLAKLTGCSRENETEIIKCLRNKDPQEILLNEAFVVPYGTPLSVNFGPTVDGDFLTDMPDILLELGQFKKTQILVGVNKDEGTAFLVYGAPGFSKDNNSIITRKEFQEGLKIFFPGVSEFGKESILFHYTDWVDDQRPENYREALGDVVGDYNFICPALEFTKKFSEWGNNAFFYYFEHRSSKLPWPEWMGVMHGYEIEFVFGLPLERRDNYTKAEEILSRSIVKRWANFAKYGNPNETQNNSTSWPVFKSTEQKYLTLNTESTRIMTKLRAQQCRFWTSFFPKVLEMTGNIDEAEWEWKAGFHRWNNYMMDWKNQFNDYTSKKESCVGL

SMILES	IC50 (AChE [3]) [µM]	IC50 (BChE [4]) [µM]	further results
Cc1ccc(-c2cn(Cc3ccc4ccccc4c3)nn2)cc1C(=O)NCCN1CCOCC1 [2-methyl-N-(2-morpholinoethyl)-5-(1-(naphthalen-2-ylmethyl)-1H-1,2,3-triazol-4-yl)benzamide]	–	–	IC50 (BChE [1]; read-out: IC50 for BChE, previously reported triazole analog): 90.76 ± 0.21 µM
O=C1/C(=C\c2ccc(N3CCCC3)cc2)S/C(=N/N2CCOCC2)N1c1ccccc1 [(E)-2-(morpholinoimino)-3-phenyl-5-((E)-4-(pyrrolidin-1-yl)benzylidene)thiazolidin-4-one]	–	–	IC50 (AChE [2]): 17.4 ± 0.22 µM; IC50 (BChE [1]; previously reported thiazolidinone analog, read-out: IC50 against BChE): 24.4 ± 0.51 µM
COc1cc(-c2nnc3[nH]ccn23)ccc1N1C(=O)CSC1c1ccc(F)cc1O (stereo not shown) [Analog 11]	8.3 ± 0.2	8.6 ± 0.3	–
COc1cc(-c2nnc3[nH]ccn23)ccc1N1C(=O)CSC1c1ccc(F)cc1F (stereo not shown) [Analog 3]	8.1 ± 0.4	8.5 ± 0.3	–
COc1cc(-c2nnc3[nH]ccn23)ccc1N1C(=O)CSC1c1ccc(C(F)(F)F)cc1 (stereo not shown) [Analog 10]	6.7 ± 0.2	7.1 ± 0.1	Mode of inhibition (enzyme kinetics) (enzyme): competitive inhibitor
